# pIC50: −log10 of the molar value.
# Columns and labels:
# [1] = target: T1, Histone-lysine N-methyltransferase EZH1 (Homo sapiens, UniProt Q92800)
# T1 sequence (Q92800 whole entry): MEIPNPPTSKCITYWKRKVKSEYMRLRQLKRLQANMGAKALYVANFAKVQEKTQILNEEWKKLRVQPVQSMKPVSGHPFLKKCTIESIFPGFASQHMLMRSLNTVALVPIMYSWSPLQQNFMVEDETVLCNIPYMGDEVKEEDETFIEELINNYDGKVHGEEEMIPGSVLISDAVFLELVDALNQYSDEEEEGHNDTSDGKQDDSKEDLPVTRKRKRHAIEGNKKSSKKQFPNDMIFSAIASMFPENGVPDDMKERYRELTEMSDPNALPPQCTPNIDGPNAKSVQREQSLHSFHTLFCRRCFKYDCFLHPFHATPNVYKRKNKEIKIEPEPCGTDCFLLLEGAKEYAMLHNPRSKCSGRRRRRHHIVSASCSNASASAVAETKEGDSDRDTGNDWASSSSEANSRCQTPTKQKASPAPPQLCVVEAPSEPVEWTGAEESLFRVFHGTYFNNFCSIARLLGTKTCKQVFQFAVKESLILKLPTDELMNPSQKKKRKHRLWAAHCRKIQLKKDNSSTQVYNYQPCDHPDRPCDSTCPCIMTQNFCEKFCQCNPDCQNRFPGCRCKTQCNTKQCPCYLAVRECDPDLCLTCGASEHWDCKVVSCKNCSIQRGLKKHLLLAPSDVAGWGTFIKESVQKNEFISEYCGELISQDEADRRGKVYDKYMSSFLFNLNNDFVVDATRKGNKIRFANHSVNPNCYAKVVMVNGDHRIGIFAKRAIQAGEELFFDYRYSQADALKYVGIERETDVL
# Description: Inhibition of EZH1 (unknown origin)
# [2] = Fraction unbound in Beagle dog plasma; format: ADME, cell-free, Canis lupus familiaris
# Cytochrome P450 3A4 = Cytochrome P450 3A4 (Homo sapiens, UniProt P08684); assay: Time dependent inhibition of CYP3A4 (unknown origin); format: ADME
# [3] = Toxicity in Sprague-Dawley rat at 100 to 600 mg/kg, po QD administered via gavage as single dose for 28 days; format: organism-based; settings: in vivo, 672 h, dose 100-600 mg/kg, time 28 day
# CYP2D6 = CYP2D6 (Homo sapiens, UniProt P10635); assay: Inhibition of CYP2D6 (unknown origin) at 10 uM relative to control; format: ADME
# [4] = Intrinsic clearance in rat liver microsomes assessed per mg protein; format: ADME, Microsome
# [5] = Protein binding in rat plasma assessed as bound fraction; format: ADME, cell-free; settings: read-out: PPB (converted)
# [6] = Unbound AUC in Beagle dog at 5 mg/kg, po; format: ADME, organism-based, Canis lupus familiaris; settings: in vivo
# [7] = Half life in Balb/c mouse plasma at 1 mg/kg, iv formulated with 5:60:35 DMA/PEG400/20% SBECD; format: ADME, organism-based
# KARPAS-422 = assay: Antitumor activity against human KARPAS-422 cells harboring EZH2 Y641N mutant xenografted in CB17 SCID mouse assessed as tumor growth inhibition at 160 mg/kg, po BID administered for 25 days and measured post-treatment by caliper method relative to control; format: functional; settings: KARPAS-422, po, 600 h, time 25 day, read-out: TGI
# [8] = Drug concentration in tumor of CB17 SCID mouse xenografted with human KARPAS-422 cells at 160 mg/kg, po BID administered for 17 days and measured up to 12 hrs post last dose by LC-MS analysis; format: ADME, organism-based, Neoplasm; settings: time 17 day, read-out: Ct
# [9] = Oral bioavailability in Balb/c mouse at 100 mg/kg formulated in 0.5 % methyl cellulose maintained at pH 3 to 4; format: ADME, organism-based; settings: in vivo, pH 3, 100 mg/kg
# CYP2C8 = target: T2, CYP2C8 (Homo sapiens, UniProt P10632); assay: Inhibition of CYP2C8 (unknown origin) at 10 uM relative to control; format: ADME
# T2 sequence (P10632 whole entry): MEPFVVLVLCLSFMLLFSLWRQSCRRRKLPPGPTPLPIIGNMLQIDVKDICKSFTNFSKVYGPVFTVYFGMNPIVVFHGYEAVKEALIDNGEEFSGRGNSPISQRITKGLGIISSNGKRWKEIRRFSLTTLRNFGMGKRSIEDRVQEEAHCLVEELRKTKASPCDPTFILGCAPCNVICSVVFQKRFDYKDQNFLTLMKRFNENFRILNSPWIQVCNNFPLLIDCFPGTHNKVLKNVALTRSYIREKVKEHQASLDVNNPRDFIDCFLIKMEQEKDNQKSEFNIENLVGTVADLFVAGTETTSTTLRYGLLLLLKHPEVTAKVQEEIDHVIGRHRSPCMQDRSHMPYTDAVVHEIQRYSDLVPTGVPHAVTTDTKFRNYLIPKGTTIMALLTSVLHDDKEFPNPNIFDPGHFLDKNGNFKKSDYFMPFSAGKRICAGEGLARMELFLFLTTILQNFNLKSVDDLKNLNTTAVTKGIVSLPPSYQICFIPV
# [10] = Clearance in Balb/c mouse at 1 mg/kg, iv formulated with 5:60:35 DMA/PEG400/20% SBECD; format: ADME, organism-based; settings: in vivo
# [11] = Volume of distribution at steady state in Sprague-Dawley rat at 1 mg/kg, iv; format: ADME, organism-based; settings: in vivo, read-out: Vdss
# [12] = Unbound clearance in Balb/c mouse at 1 mg/kg, iv formulated with 5:60:35 DMA/PEG400/20% SBECD; format: ADME, organism-based; settings: in vivo
# [13] = Oral bioavailability in Beagle dog at 5 mg/kg; format: ADME, organism-based, Canis lupus familiaris; settings: in vivo
# [14] = Protein binding in dog plasma assessed as bound fraction; format: ADME, cell-free, Canis lupus familiaris; settings: read-out: PPB (converted)
# [15] = AUC (0 to infinity) in Sprague-Dawley rat at 25 mg/kg, po; format: ADME, organism-based; design: route oral, time infinity, dose 25 mg/kg; settings: in vivo
# [16] = Half life in Sprague-Dawley rat plasma at 1 mg/kg, iv; format: ADME, organism-based
# [17] = AUC (0 to infinity) in Beagle dog at 5 mg/kg, po; format: ADME, organism-based, Canis lupus familiaris; design: route oral, time infinity, dose 5 mg/kg; settings: in vivo
# [18] = Intrinsic clearance in dog liver microsomes assessed per mg protein; format: ADME, Canis lupus familiaris, Microsome
# [19] = Unbound AUC in Sprague-Dawley rat at 25 mg/kg, po; format: ADME, organism-based; settings: in vivo
# Cytochrome P450 2D6 = Cytochrome P450 2D6 (Homo sapiens, UniProt P10635); assay: Time dependent inhibition of CYP2D6 (unknown origin); format: ADME
# [20] = Toxicity in CB17 SCID mouse xenografted with human KARPAS-422 cells harboring EZH2 Y641N mutant assessed as effect body weight loss at 160 mg/kg, po BID administered for 25 days; format: organism-based; settings: in vivo, 600 h, time 25 day
# [21] = Volume of distribution at steady in Balb/c mouse at 1 mg/kg, iv formulated with 5:60:35 DMA/PEG400/20% SBECD; format: ADME, organism-based; settings: in vivo, read-out: Vdss
# [22] = Unbound clearance in Sprague-Dawley rat at 1 mg/kg, iv; format: ADME, organism-based; settings: in vivo
# [23] = Half life in Beagle dog plasma at 1 mg/kg, iv; format: ADME, organism-based, Canis lupus familiaris
# [24] = Cmax in Balb/c mouse at 100 mg/kg, po formulated in 0.5 % methyl cellulose maintained at pH 3 to 4; format: ADME, organism-based; design: route oral, dose 100 mg/kg; settings: in vivo, pH 3, 100 mg/kg
# Chain of Cytochrome P450 2D6 (P10635 whole entry): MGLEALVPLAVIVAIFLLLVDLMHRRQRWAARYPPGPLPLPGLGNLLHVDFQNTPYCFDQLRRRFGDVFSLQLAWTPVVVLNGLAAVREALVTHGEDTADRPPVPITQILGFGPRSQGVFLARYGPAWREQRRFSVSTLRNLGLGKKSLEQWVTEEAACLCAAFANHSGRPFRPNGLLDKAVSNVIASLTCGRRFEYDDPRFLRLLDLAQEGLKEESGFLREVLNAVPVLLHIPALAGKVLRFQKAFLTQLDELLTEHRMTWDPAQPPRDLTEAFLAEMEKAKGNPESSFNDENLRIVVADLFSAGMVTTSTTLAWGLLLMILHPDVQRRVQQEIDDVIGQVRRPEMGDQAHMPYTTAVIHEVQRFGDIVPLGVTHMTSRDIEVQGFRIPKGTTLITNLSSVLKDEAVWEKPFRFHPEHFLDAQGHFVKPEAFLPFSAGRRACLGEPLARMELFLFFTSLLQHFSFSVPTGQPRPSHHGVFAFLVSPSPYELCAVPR
# Chain of CYP2D6 (P10635 whole entry): as above
# Chain of Cytochrome P450 3A4 (P08684 whole entry): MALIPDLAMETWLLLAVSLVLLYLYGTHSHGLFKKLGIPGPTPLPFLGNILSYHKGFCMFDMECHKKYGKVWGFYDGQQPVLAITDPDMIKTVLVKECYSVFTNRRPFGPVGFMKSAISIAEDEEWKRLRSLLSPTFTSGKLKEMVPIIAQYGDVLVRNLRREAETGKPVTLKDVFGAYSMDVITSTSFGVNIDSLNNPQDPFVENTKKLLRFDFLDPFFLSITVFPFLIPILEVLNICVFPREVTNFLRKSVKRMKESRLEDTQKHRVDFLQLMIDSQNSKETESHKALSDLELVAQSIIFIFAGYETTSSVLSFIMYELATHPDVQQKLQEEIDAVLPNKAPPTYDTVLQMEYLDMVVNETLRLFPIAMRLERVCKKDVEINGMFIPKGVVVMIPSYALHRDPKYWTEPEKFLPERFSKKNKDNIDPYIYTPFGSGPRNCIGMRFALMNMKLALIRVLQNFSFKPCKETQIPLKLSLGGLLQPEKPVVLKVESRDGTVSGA
structure (smiles),measurement,setting,value
COc1cc(C)[nH]c(=O)c1CNC(=O)c1c(C)n([C@H](C)C2CCN(CC(F)(F)F)CC2)c2ccccc12 [CPI-1205],pIC50,[1],7.28
same,Fu,[2],0.021%
same,TDI,Cytochrome P450 3A4,Not Active
same,Activity,[3],Non-Toxic
same,inhibition at 10 µM,CYP2D6,9.5%
same,CLH,[4],99.6 µL/min
same,fraction unbound,[5],0.101
same,fAUC,[6],0.309 µM·h
same,half-life,[7],1.63 h
same,inhibition in vivo at 160 mg/kg,KARPAS-422,> 97%
same,concentration at 408 h,[8],5290 ng/g
same,F,[9],100%
same,inhibition at 10 µM,CYP2C8,41%
same,clearance,[10],36 mL/min/kg
same,Vd,[11],2.22 L/kg
same,CL free,[12],1715 mL/min/kg
same,F,[13],46.2%
same,fraction unbound,[14],0.097
same,AUC(0-inf),[15],7.06 µM·h
same,half-life,[16],0.653 h
same,AUC(0-inf),[17],3.19 µM·h
same,CLH,[18],73.9 µL/min
same,fAUC,[19],0.713 µM·h
same,TDI,Cytochrome P450 2D6,Not Active
same,Activity,[20],Non-Toxic
same,Vd,[21],1.36 L/kg
same,CL free,[22],527 mL/min/kg
same,half-life,[23],1.84 h
same,Cmax,[24],67.4 µM

# Source: ChEMBL document CHEMBL4765232 (J Med Chem, 2016)
